# Results from patent publication US20260176289A1, “SMALL MOLECULE INHIBITORS OF KRAS PROTEINS” (Merck Sharp & Dohme LLC, priority 2022, published 2026).
# Like-named read-outs stand apart in the source and are kept apart here.
# How the values were obtained:
# [1] = target: KRAS-G12D (Homo sapiens, UniProt P01116, G12D); experiment: SOS-catalyzed nucleotide exchange assay (Procedure A, TR-FRET), KRAS-G12D; type: biochemical; settings: nucleotide exchange, read-out: KRAS G12D GNE IC50
# Summary of the method: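 Signal ratio (520/495 nm, excitation 340 nm) reports Bodipy-GDP retention on biotinylated RAS after SOS-catalyzed exchange with 3 mM GTP. SOS was 40 nM, except 160 nM for G12V. Room-temperature exchange lasted 60 min (90 min for G12V), following a 60 min compound preincubation.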
# [2] = tested on: PANC08.13 cells; experiment: Cellular phospho-ERK assay, PANC08.13 cells (homozygous KRAS-G12D); type: cell-based; settings: Homo sapiens, PANC-08-13, KRAS-G12D, 2 hours, read-out: PANC-08.13 pERK IC50
# Protocol: Procedure for Cellular Phospho-ERK Assay in KRAS Wild Type and Mutant (G12D, G12V) Cell Lines
# MKN-1 cells (JCRB JCRB0252) containing amplified wild-type KRAS, were cultured in growth medium that contains RPMI 1640-GlutaMAX™-I (ThermoFisher Scientific 61870) containing 10% heat inactivated fetal bovine serum (ThermoFisher Scientific 10091148), 1 mM sodium pyruvate and 10 mM HEPES. PANC08.13 cells (ATCC® CRL-2551™), containing homozygous KRAS-G12D activating mutation, were cultured in growth medium made of RPMI1640-GlutaMAX™-I (ThermoFisher Scientific 61870) containing 15% heat inactivated fetal bovine serum (ThermoFisher Scientific 10091148)). AsPC-1 cells (ATCC® CRL-1682™), containing homozygous KRAS-G12D activating mutation, were cultured in T150 flask in growth medium (RPMI medium 1640-GlutaMAX™-I (ThermoFisher Scientific 61870) containing 10% fetal bovine serum (ThermoFisher Scientific 10091148)). SW620 cells (ATCC® […]), containing homozygous KRAS-G12V activating mutation, were cultured in growth medium that contains RPMI 1640-GlutaMAX™-I (ThermoFisher Scientific 61870) containing 10% heat inactivated fetal bovine serum (ThermoFisher Scientific 10091148).
# Cells for the assay were harvested in growth medium after TrypLE (ThermoFisher scientific 12604021) digestion and were seeded in a 384-well collagen coated cell culture plate (Corning 356702) at a density of 10,000-15,000 cells/20 μL/well, and incubated at 37° C., 5% CO2 overnight. The compound (with 10 mM stock concentration) dose-response titrations were prepared [30 μM final ERK detection assay concentration and 1:3 dilutions, 10-point dose response] and appropriate amounts (270 nL) of test compounds were dispensed in a 384-well intermediate plate using an Echo 550 liquid handler. 30 μL/well of RPMI medium 1640-GlutaMAX™—I was added to the intermediate plate and the contents of the intermediate plate (10 μL/well) were then transferred to the 384-well collagen coated cell culture plate, which was incubated at 37° C., 5% CO2 for 2 hours. After removal of medium from the collagen coated cell culture plate, cells were lysed in lysis buffer from Alpha SureFire® Ultra™ Multiplex p-ERK and total ERK assay kit (PerkinElmer MPSU-PTERK) containing Halt™ Protease and Phosphatase inhibitor cocktail (ThermoFisher Scientific 78446) at room temperature with constant shaking at 300 rpm for 30 minutes. The cell lysates were then transferred to an OptiPlate-384 plate (PerkinElmer 6005620), and the phosphorylation of ERK (p-ERK) and total ERK levels were detected by Alpha SureFire® Ultra™ Multiplex p-EEK kit and total ERK assay kit (PerkinElmer MPSU-PTERK) following the manufacturer's protocol. Assay plates were read on a En Vision Multimode Plate Reader (PerkinElmer), and the ratio of p-ERK vs. total ERK in each well was used as the final readout. Dose response curves were analyzed using a 4-parameter logistic model to calculate IC50 values using Spotfire software.
# [3] = target: KRAS-WT (Homo sapiens, UniProt P01116); experiment: SOS-catalyzed nucleotide exchange assay (Procedure A, TR-FRET), KRAS-WT; type: biochemical; settings: nucleotide exchange, read-out: KRAS WT GNE IC50
# Chain of KRAS-WT (P01116 with tags, fused parts or gaps isoform P01116-2): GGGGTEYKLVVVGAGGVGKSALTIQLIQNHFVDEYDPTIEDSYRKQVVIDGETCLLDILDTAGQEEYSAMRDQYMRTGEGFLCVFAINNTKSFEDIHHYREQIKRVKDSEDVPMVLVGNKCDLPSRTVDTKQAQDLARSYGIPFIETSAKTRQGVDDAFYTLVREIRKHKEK
# Summary of the method: (§1)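 Compounds (10-point, 3-fold) were preincubated 60 min at room temperature with a biotinylated RAS/Bodipy-GDP/Tb-streptavidin TR-FRET complex. Exchange was started with human SOS plus 3 mM GTP. RAS/SOS: G12C 3/40 nM, WT 1/40 nM, NRAS 1.25/40 nM (60 min); G12V 1.25/160 nM (90 min). The 520/495 ratio was fit four-parameter.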
# [4] = target: KRAS-G12V (Homo sapiens, UniProt P01116, G12V); experiment: SOS-catalyzed nucleotide exchange assay (Procedure A, TR-FRET), KRAS-G12V; type: biochemical; settings: nucleotide exchange, read-out: KRAS G12V GNE IC50
# Chain of KRAS-G12V (P01116 with tags, fused parts or gaps isoform P01116-2 G12V): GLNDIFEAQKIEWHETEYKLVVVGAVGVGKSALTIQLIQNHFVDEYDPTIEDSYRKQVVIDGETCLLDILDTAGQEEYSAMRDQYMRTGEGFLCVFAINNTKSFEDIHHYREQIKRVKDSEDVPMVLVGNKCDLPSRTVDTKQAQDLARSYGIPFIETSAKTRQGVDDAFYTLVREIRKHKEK
# Summary of the method: as §1
# [5] = target: KRAS-G13D (Homo sapiens, UniProt P01116, G13D); experiment: SOS-catalyzed nucleotide exchange assay (Procedure A, TR-FRET), KRAS-G13D; type: biochemical; settings: nucleotide exchange, Procedure A; read-out: KRAS G13D GNE IC50
# Chain of KRAS-G13D (P01116 with tags, fused parts or gaps isoform P01116-2 G13D): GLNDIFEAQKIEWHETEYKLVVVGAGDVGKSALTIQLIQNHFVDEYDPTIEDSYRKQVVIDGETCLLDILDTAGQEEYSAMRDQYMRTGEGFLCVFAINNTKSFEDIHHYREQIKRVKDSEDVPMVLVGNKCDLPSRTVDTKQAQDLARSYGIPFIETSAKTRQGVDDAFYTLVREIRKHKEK
# [6] = target: KRAS-G12C (C51S/C80L/C118S) (Homo sapiens, UniProt P01116, C118S/C51S/C80L/G12C); experiment: SOS-catalyzed nucleotide exchange assay (Procedure A, TR-FRET), KRAS-G12C; type: biochemical; settings: nucleotide exchange, Procedure A; read-out: KRAS G12C GNE IC50
# Chain of KRAS-G12C (C51S/C80L/C118S) (P01116 with tags, fused parts or gaps isoform P01116-2 G12C/C51S/C80L/C118S): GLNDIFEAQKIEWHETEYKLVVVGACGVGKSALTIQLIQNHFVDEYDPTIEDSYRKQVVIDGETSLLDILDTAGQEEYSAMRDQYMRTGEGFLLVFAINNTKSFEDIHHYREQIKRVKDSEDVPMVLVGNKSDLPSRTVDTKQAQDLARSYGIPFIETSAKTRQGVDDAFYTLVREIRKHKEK
# Summary of the method: as §1
# [7] = tested on: AsPC-1 cells; experiment: Cellular phospho-ERK assay, AsPC-1 cells (homozygous KRAS-G12D); type: cell-based; settings: Homo sapiens, ASPC1, 2 h, read-out: AsPC1 pERK IC50
# Summary of the method: (§2)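 Cells were seeded overnight, then treated 2 h at 37° C with compound in a 10-point, 1:3 titration from 30 μM top final concentration. Lysates were assayed by AlphaLISA SureFire Ultra for p-ERK and total ERK. IC50 came from a 4-parameter logistic fit of the p-ERK/total ERK ratio.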
# [8] = tested on: MKN-1 cells; experiment: Cellular phospho-ERK assay, MKN-1 cells (amplified wild-type KRAS); type: cell-based; settings: Homo sapiens, read-out: MKN1 pERK IC50
# Summary of the method: as §2
# [9] = tested on: SW620 cells; experiment: Cellular phospho-ERK assay, SW620 cells (homozygous KRAS-G12V); type: cell-based; settings: Homo sapiens, read-out: SW620 pERK IC50
# Summary of the method: as §2
# [10] = amplified wild-type KRAS, 2 hours
# [11] = SW-620, 2 hours compound incubation
# Chain of KRAS-G12D (P01116 with tags, fused parts or gaps isoform P01116-2 G12D): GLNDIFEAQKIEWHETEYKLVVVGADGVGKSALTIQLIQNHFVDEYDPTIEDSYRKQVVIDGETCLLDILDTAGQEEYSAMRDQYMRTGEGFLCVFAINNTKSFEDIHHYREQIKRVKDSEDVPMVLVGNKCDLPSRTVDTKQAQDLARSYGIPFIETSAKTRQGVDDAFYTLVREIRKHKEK
IC50 [2] [nM],IC50 [6] [nM],IC50 ([7]; 2 hours compound incubation) [nM],IC50 ([8]; 2 hours compound incubation) [nM],"IC50 [9, 11] [nM]",Compound,IC50 [1] [nM],IC50 [3] [nM],IC50 [4] [nM],IC50 [5] [nM],"IC50 ([7]; KRAS-G12D, 2 hours) [nM]","IC50 [8, 10] [nM]","IC50 ([9]; SW-620, KRAS-G12V, 2 hours) [nM]"
2330,175,,,,"Cc1cc2[nH]ncc2c(-c2nccc3c2oc2nc(OC[C@@]45CCCN4C[C@H](F)C5)nc(N4CCOC[C@@](C)(O)C4)c23)c1C(F)(F)F [Ex-290, (6S)-4-(2-(((2R,7aS)-2-fluorotetrahydro-1H-pyrrolizin-7a(5H)-yl)methoxy)-8-(6-methyl-5-(trifluoromethyl)-1H-indazol-4-yl)pyrido[4′,3′:4,5]furo[2,3-d]pyrimidin-4-yl)-6-methyl-1,4-oxazepan-6-ol]",611,1400,365,1030,,,
1860,25.3,,,,"Cc1cc2[nH]ncc2c(-c2nccc3c4c(N5CCCC6(CC(=O)N6)C5)nc(OC[C@@]56CCCN5C[C@H](F)C6)nc4n(C)c23)c1C(F)(F)F (single isomer, unassigned) [Ex-21]",59,455,34.4,,3260,,
,34,82.1,120,96.7,"C=C(C)c1c(Cl)cc2[nH]ncc2c1-c1nccc2c1sc1nc(OC[C@@]34CCCN3C[C@H](F)C4)nc(N3CCOC[C@@](C)(O)C3)c12 [Ex-142, (6S)-4-(8-(6-chloro-5-(prop-1-en-2-yl)-1H-indazol-4-yl)-2-(((2R,7aS)-2-fluoro-tetrahydro-1H-pyr-rolizin-7a(5H)-yl)-methoxy)pyrido [4′,3′:4,5]thieno[2,3-d]pyrimidin-4-yl)-6-methyl-1,4-oxaze-pan-6-ol]",19.2,49.2,29.3,31.1,,,
,21.7,40.7,41.5,31.2,C#Cc1cc(F)cc2cc3[nH]ncc3c(-c3nccc4c3sc3nc(OC[C@@]56CCCN5C[C@H](F)C6)nc(N5CCOC[C@@](C)(O)C5)c34)c12 [Ex-165],6.79,18.6,11,14.1,,,
,87.7,38,53.1,131,"Cc1cc2[nH]ncc2c(-c2nccc3c2sc2nc(OC[C@@]45CCCN4C[C@H](F)C5)nc(N4CCOC[C@@](C)(O)C4)c23)c1C1CC1 [Ex-141, (6S)-4-(8-(5-cyclo-propyl-6-methyl-1H-indazol-4-yl)-2-(((2R,7aS)-2-fluoro-tetrahydro-1H-pyr-rolizin-7a(5H)-yl)-methoxy)pyrido [4′,3′:4,5]thieno[2,3-d]pyrimidin-4-yl)-6-methyl-1,4-oxaze-pan-6-ol]",7.5,18.1,16.5,14.4,,,

Compound,IC50 [2] [nM],IC50 [6] [nM],IC50 ([7]; 2 hours compound incubation) [nM],IC50 ([8]; 2 hours compound incubation) [nM],"IC50 [9, 11] [nM]",IC50 [1] [nM],IC50 [3] [nM],IC50 [4] [nM],IC50 [5] [nM],"IC50 ([7]; KRAS-G12D, 2 hours) [nM]","IC50 [8, 10] [nM]","IC50 ([9]; SW-620, KRAS-G12V, 2 hours) [nM]"
"C=C(C)c1c(C(F)(F)F)cc2[nH]ncc2c1-c1nccc2c1sc1nc(OCC34CCCN3CC(F)C4)nc(N3CCOCC(C)(O)C3)c12 [Ex-60, (6S)-4-(2-(((2R,7aS)-2-fluorotetrahydro-1H-pyrrolizin-7a(5H)-yl)methoxy)-8-(5-(prop-1-en-2-yl)-6-(trifluoromethyl)-1H-indazol-4-yl)pyrido[4′,3′:4,5]thieno [2,3-d]pyrimidin-4-y])-6-methyl-1,4-oxazepan-6-ol]",,22.4,,,,9.46,29,18.6,15.8,99.5,44.5,41.9
"C=C(F)c1c(C(F)(F)F)cc2[nH]ncc2c1-c1nccc2c1sc1nc(OC[C@@]34CCCN3C[C@H](F)C4)nc(N3CCOC[C@@](C)(O)C3)c12 [Ex-58, (6S)-4-(2-(((2R,7aS)-2-fluorotetrahydro-1H-pyrrolizin-7a(5H)-yl)methoxy)-8-(5-(1-fluorovinyl)-6-(trifluoromethyl)-1H-indazol-4-yl)pyrido[4′,3′:4,5]thieno [2,3-d]pyrimidin-4-yl)-6-methyl-1,4-oxazepan-6-ol]",,16.5,,,,5.41,17.6,13.5,10.4,57.1,35.5,36.2
"C[C@@]1(O)COCCN(c2nc(OC[C@@]34CCCN3C[C@H](F)C4)nc3sc4c(-c5c(C6CCC6)c(Cl)cc6[nH]ncc56)nccc4c23)C1 [Ex-69, (6S)-4-(8-(6-chloro-5-cyclobutyl-1H-indazol-4-yl)-2-(((2R,7aS)-2-fluorotetrahydro-1H-pyrrolizin-7a(5H)-yl)methoxy)pyrido[4′,3′:4,5]thi-eno[2,3-d]pyrimidin-4-yl)-6-methyl-1,4-oxazepan-6-ol]",,20.4,,,,6.79,28.6,10.2,12.5,68.5,52.7,51.9
"Cc1cc2[nH]ncc2c(-c2nccc3c4c(N5CCOC[C@@](C)(O)C5)nc(OC[C@]5(CN(C)C)CC5(F)F)nc4n(C)c23)c1C(F)(F)F [Ex-20, (6S)-4-(2-(((R)-1-((dimethylamino)methyl)-2,2-difluorocyclopropyl)methoxy)-9-methyl-8-(6-methyl-5-(trifluoromethyl)-1H-indazol-4-yl)-9H-pyrido[4′,3′:4,5]pyrrolo[2,3-d]pyrimidin-4-yl)-6-methyl-1,4-oxazepan-6-ol]",80.6,,,,,37.9,125,62.9,,,150,539
"Cc1cc2[nH]ncc2c(-c2nncc3c2sc2nc(OC[C@@]45CCCN4C[C@H](F)C5)nc(N4CCOC[C@@](C)(O)C4)c23)c1C1CC1 [Ex-279, (6S)-4-(8-(5-cyclopropyl-6-methyl-1H-indazol-4-yl)-2-(((2R,7aS)-2-fluorotetrahydro-1H-pyrrolizin-7a(5H)-yl)methoxy)pyrimi-do[5′,4′:4,5]thieno[2,3-d]pyridazin-4-yl)-6-methyl-1,4-oxazepan-6-ol]",,97.6,,,,5.15,13.6,16,7.59,114,43,99.8
